We go through 1 compound from US9868707B2, “Small molecule agonists of neurotensin receptor 1” (SANFORD-BURNHAM MEDICAL RESEARCH INSTITUTE, priority 2012, dated 2018).

Data set [1] deals with NTR1 (Homo sapiens, UniProt P30989). Kind of data set: NTR1 high-content imaging (HCS) dose response, NTR1-U2OS cells. It is filed as cell-based. Also noted: host or cells: U2OS osteosarcoma. To be noted: n = 4 unless otherwise noted. The source says:
The cell lines utilized in the high-content imaging assays, which include the NTR1-, NTR2-, and GPR35-U2OS osteosarcomas, were obtained from the laboratory of Dr. Lawrence Barak at the Duke University Medical Center. The media used in the culture of the cell lines, as well as the assays themselves, consisted of Minimum Essential Medium (15-010-CM) and L-glutamine (25-005-CL) from Cellgro/Mediatech (Manassas, Va.), fetal bovine serum (SH30396.03) from Hyclone (Logan, Utah), penicillin-streptomycin solution (PS-20) from Omega Scientific in Tarzana, Calif., G418 (ant-gn-1) from Invivogen (San Diego, Calif.), and zeocin (R250-01) from Invitrogen (Carlsbad, Calif.). Cell lines were cultured in T225 tissue culture flasks (431082) supplied by Corning (Corning, N.Y.). Additional reagents employed include Dulbecco's Phosphate-Buffered Saline (DPBS) (21-031CV) from Cellgro/Mediatech, Trypsin-EDTA 0.05% (25300) from Invitrogen, paraformaldehyde (30528954) from Acros Organics (Geel, Belgium), Hoechst 33342 (H3570) from Invitrogen. The high-content assays were run in 1536-well plates (29326) supplied by Aurora Biotechnology (Poway, Calif.) and utilized aluminum plate seals (T592100) from E&K Scientific (Santa Clara, Calif.).
The neurotensin 1 peptide (N6383) from Sigma-Aldrich (St. Louis, Mo.) was used as a positive control in the NTR1 primary HCS assay. For the NTR2 selectivity assay, the non-specific, small molecule 3-(4-fluorophenyl)-7,8-dimethoxy-5-(4-methylbenzyl)-5H-pyrazolo[4,3-c]quinolone which was synthesized internally was used as a positive control. The GPR35 selectivity screen utilized zaprinast (ALX430-020-M010) from Alexis Biochemicals (Farmingdale, N.Y.) as a control.
The high-content imaging based NTR1 primary screen in 1536-well format was utilized to assay the MLSMR library of chemical entities in the following manner. On day one, 4 uL of a cell suspension containing 350,000 NTR1-U2OS cells per mL is added to each well of a 1536-well assay plate. Cells are plated in MEM medium containing 2.5% Fetal Bovine Serum, 1% Penicillin/Streptomycin solution, 1% L-Glutamine, 400 ug/mL G418, and 200 ug/mL Zeocin. The assay plates are then incubated overnight at 37° C., under 5% CO2. Following the overnight incubation, a volume of 60 nL of the compounds at 2 mM in DMSO (final 20 μM, 1% DMSO) was transferred to columns 5-48 of the assay plates using a LabCyte Echo Liquid Handler. Next, 60 nL of DMSO were dispensed to columns 1-4, which served as the positive and neutral control wells. […] The assay plates were centrifuged on an Eppendorf 5810 centrifuge at 1000 rpm for 1 min to ensure even liquid levels in the wells of the assay plates. The assay plates were then returned to the incubator for 1 hour. Following the hour-long incubation at 37° C., the cells in each well were fixed with 4 uL of 6% paraformaldehyde added with a Multidrop Combi. The assay plates were centrifuged as before and incubated at room temperature for 1 hour. On the Kalypsys, plates were then aspirated down to 2.5 uL per well and washed twice with 11 uL per well of DPBS, followed by a final aspiration to 2.5 uL per well. On the Combi dispenser, 5 uL of 5 ug/mL Hoechst 33342 diluted in DPBS was added to each well of assay plates. The plates were again centrifuged as previously described, sealed, and incubated for at least 1 hour prior to being loaded on a PerkinElmer Opera QEHS.
Image acquisition was performed with a 45 plate capacity loader/stacker and the following settings: 40×0.6 NA air objective, acquisition camera set to 2-by-2 binning for an image size of 688 by 512 pixels, beta-arrestin-GFP acquired using 488 nm laser excitation and 540/75 nm emission filters, DAPI (nuclei) using 365 nm Xenon lamp excitation and 450/50 nm emission filters, 3 fields per well. Image analysis was performed using the Acapella Spot Detection Algorithm. For analysis settings and the metrics employed in the data analyses, please refer to supplemental information.

The nature of data set [2]: Plasma stability, mouse plasma. It is filed as in vitro ADME. The method, then: Plasma stability was determined using previously published methods (Kerns, E. H., and Di, L. 2008. Drug-like Properties: Concepts, Structure Design and Methods. Oxford UK: Elsevier). Compound (1.0 μM) was incubated at 37° C. in human or mouse plasma (from blood of healthy donors collected on EDTA) diluted to 50% (v/v) with pH 7.4 isotonic phosphate buffer. At time 0 min and 180 min, aliquots were collected, added to acetonitrile to quench the reaction and precipitate plasma proteins. These samples were centrifuged and the supernatant analyzed by the LC/MS/MS method described above for the presence of the parental compound.

Data set [3] can be described thus: Metabolic stability in human hepatic microsomes. Type of data set: in vitro ADME. The method, then: Hepatic metabolic stability was determined using established protocols (Di, L., Kerns, E. H., Hong, Y., Kleintop, T. A., McConnell, O. J., and Huryn, D. M. 2003. Optimization of a higher throughput microsomal stability screening assay for profiling drug discovery candidates. J Biomol Screen 8:453-462). Briefly, the compound (1.0 and 10.0 μM) was preincubated for 10 min at 37° C. in potassium phosphate buffer (pH 7.4) together with 0.5 mg/mL mouse or human hepatic microsomes (Xenotech, Kansas City). The cofactor mixture comprising NADP, G6P, and G6P-DH (BD Biosciences) was added, and aliquots were taken after 0 and 60 min. Samples were analyzed on an Acquity UPLC, coupled with a sample organizer, and interfaced with a triple quadrupole ABI 4000 LC/MS/MS using the methodology described above. The percentage of the compound remaining after a 60 min incubation period was calculated according the following equation: [(area at time 60 min)/(area at time 0 min)]×100%.

The test system of data set [4] is GPCR binding assay panel (˜40 receptors). As to the kind of experiment: PDSP GPCR binding assay panel. The source says:
However, these activities in in vitro binding assays may not translate into functional modulation of these receptors.

A short description of data set [5]: PK in mouse after iv and ip dose. It is filed as in vivo.

As usually defined, the EC50 is the concentration that produces a half-maximal response. A word on the Emax: it is the maximal effect, on the per cent scale that the assay sets. In general, AUC refers to concentration integrated over time. A higher AUC goes with more exposure. By Cmax is commonly meant the peak of the concentration-time curve.

Structures are written as SMILES.

NTR1, sequence (P30989 whole entry, species assumed): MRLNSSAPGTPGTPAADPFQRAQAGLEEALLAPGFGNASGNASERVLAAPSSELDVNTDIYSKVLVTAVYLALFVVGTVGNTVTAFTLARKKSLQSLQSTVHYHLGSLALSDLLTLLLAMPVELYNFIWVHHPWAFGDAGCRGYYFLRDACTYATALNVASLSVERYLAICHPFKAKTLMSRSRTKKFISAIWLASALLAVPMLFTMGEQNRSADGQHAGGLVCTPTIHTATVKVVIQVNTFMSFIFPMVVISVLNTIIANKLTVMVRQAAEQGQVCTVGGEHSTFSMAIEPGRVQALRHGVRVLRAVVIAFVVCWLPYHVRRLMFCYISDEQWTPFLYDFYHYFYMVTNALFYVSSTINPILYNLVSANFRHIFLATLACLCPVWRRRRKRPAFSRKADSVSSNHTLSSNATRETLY

Regarding `COc1cc2nc(C3CC3)nc(N3CCN(c4ccccc4OC)CC3)c2cc1OC` [Compound 315, 2-cyclopropyl-6,7-dimethoxy-4-(4-(2-methoxyphenyl)piperazin-1-yl)quinazoline], the EC50 in data set [1] (Ave. ± S.E.M., read-out: HCS NTR1 Potency EC50) amounted to 2000 ± 100 nM. Besides, the Emax in data set [1] (read-out: HCS NTR1 Potency Emax) was 105%. In data set [2], the “Plasma Stability (% Remaining at 3 hrs)” value is 99.55%. Also, in data set [3], the “Hepatic Microsome Stability (% Remaining at 1 hr)” value turned out to be 1.36% and the “metabolism in vitro with liver homogenates” value was “metabolized rapidly”. For the same compound, the “promiscuity in GPCR binding assay panel” value in data set [4] (at 10 μM, ˜40 receptors tested) is listed as “moderately promiscuous”. The Ki in data set [4] (on 7 receptors, read-out: Kis in GPCR binding assay panel) was under 10000 nM. In data set [5] (2 mg/kg iv dose), this compound displayed a Vdss of 6.22 L/kg and a t1/2 of 1.93 h. In data set [5] (10 mg/kg ip dose), this compound had an AUC of 1223 ng·h/mL, a Cmax of 763 ng/mL and a t1/2 of 2.58 h. In addition, the “PK properties in mouse” value in data set [5] (in vivo) is recorded as “modest PK properties”.
